# Experimental data reported in US9732119B2, “Immunomodulators” (BRISTOL-MYERS SQUIBB COMPANY, priority 2014, dated 2017).
# pIC50: −log10 of the molar value. Non-standard residues stand in square brackets, D forms with d. Residues, ends and D or L forms follow the SMILES beside them. Trp(1-CH2COOH) = N[C@@H](Cc1cn(CC(=O)O)c2ccccc12)C(=O)O; Hyp = O=C(O)[C@@H]1C[C@@H](O)CN1; NMeNle = CCCC[C@H](NC)C(=O)O; Pip = O=C(O)[C@@H]1CCCCN1; Dab = NCC[C@H](N)C(=O)O; Dap = NC[C@H](N)C(=O)O; Ava = NCCCCC(=O)O
# Biological target: T1, PD-1-Ig binding to PD-L1-TVMV-His (PD-L1-His) (Homo sapiens, UniProt Q9NZQ7)
# T1 construct: hPDL1(19-239)-TVMV-His; made in house; host or cells: HEK293T cells
# Assay: PD-1/PD-L1 Homogenous Time-Resolved Fluorescence (HTRF) binding assay
# Details: PD-1-Ig (20 nM) / PD-L1-His (10 nM); numeric values
# Text: The ability of the macrocyclic peptides of the present disclosure to bind to PD-L1 was investigated using a PD-1/PD-L1 Homogenous Time-Resolved Fluorescence (HTRF) binding assay.
# Homogenous Time-Resolved Fluorescence (HTRF) Assays of Binding of Soluble PD-1 to Soluble PD-L1. Soluble PD-1 and soluble PD-L1 refers to proteins with carboxyl-end truncations that remove the transmembrane-spanning regions and are fused to heterologous sequences, specifically the Fc portion of the human immunoglobuling G sequence (Ig) or the hexahistidine epitope tag (His). All binding studies were performed in an HTRF assay buffer consisting of dPBS supplemented with 0.1% (w/v) bovine serum albumin and 0.05% (v/v) Tween-20. For the PD-1-Ig/PD-L1-His binding assay, inhibitors were pre-incubated with PD-L1-His (10 nM final) for 15 m in 4 μl of assay buffer, followed by addition of PD-1-Ig (20 nM final) in 1 μl of assay buffer and further incubation for 15 m. PD-L1 fusion proteins from either human, cynomologous macaques, mouse, or other species were used. HTRF detection was achieved using europium crypate-labeled anti-Ig monoclonal antibody (1 nM final) and allophycocyanin (APC) labeled anti-His monoclonal antibody (20 nM final). Antibodies were diluted in HTRF detection buffer and 5 μl was dispensed on top of binding reaction. […] Additional binding assays were established between PD-1-Ig/PD-L2-His (20 and 5 nM, respectively), CD80-His/PD-L1-Ig (100 and 10 nM, respectively) and CD80-His/CTLA4-Ig (10 and 5 nM, respectively).
# Recombinant Proteins. […] Human PD-L2-His (Sino Biologicals), CD80-His (Sino Biologicals), CTLA4-Ig (RnD Systems) were all obtained through commercial sources.
# T1 sequence (Q9NZQ7 with tags, fused parts or gaps): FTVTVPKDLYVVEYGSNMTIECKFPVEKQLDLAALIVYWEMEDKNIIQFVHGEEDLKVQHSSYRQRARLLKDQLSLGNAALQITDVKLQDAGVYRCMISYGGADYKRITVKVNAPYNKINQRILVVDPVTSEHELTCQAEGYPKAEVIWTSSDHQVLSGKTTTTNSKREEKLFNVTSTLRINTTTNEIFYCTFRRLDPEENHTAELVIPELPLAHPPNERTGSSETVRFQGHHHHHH
row,pIC50,SMILES
1,5.00,C=C(C)C[C@@H]1NC(=O)[C@H](C)N(C)C(=O)[C@H](Cc2ccccc2)NC(=O)CNC[C@@H](C(=O)NCC(N)=O)NC(=O)[C@H](CC(C)C)NC(=O)[C@H](CCCC)N(C)C(=O)[C@H](CCCC)N(C)C(=O)[C@H](Cc2c[nH]c3ccccc23)NC(=O)[C@H](CC(C)C)NC(=O)[C@H](Cc2c[nH]c3ccccc23)NC(=O)[C@@H]2CCCN2C(=O)[C@H](CC(C)C)NC(=O)[C@H](CC(C)C)NC(=O)[C@@H]2CCCN2C1=O [Example 10005]
2,6.45,CCCC[C@H]1C(=O)N(C)[C@@H](CCCC)C(=O)N[C@@H](CC(C)C)C(=O)NCCCCC(=O)N[C@@H](Cc2ccc(O)cc2)C(=O)N2CCCC[C@H]2C(=O)N[C@@H](CC(N)=O)C(=O)N2CCC[C@H]2C(=O)N[C@@H](CN)C(=O)N[C@@H](CCC(=O)O)C(=O)N2C[C@H](O)C[C@H]2C(=O)N[C@@H](Cc2c[nH]c3ccccc23)C(=O)N[C@@H](CCN)C(=O)N[C@@H](Cc2cn(CC(=O)O)c3ccccc23)C(=O)N1C [Example 10513] (cyclo([Ava]Y[Pip]NP[Dap]E[Hyp]W[Dab][Trp(1-CH2COOH)][NMeNle][NMeNle]L))

# Same assay, conditions: PD-1-Ig (20 nM) / PD-L1-His (10 nM); range classes
row,pIC50,SMILES
1,8.00 to 9.00,CCCC[C@H]1C(=O)N(C)[C@@H](CCCC)C(=O)N[C@@H](CC(C)C)C(=O)N[C@H](C(N)=O)CNCC(=O)N[C@@H](Cc2ccc(O)cc2)C(=O)N2CCCC[C@H]2C(=O)N[C@@H](CC(N)=O)C(=O)N2CCC[C@H]2C(=O)N[C@@H](CCC(N)=O)C(=O)N[C@@H](CCC(N)=O)C(=O)N2C[C@H](O)C[C@H]2C(=O)N[C@@H](Cc2c[nH]c3ccccc23)C(=O)N[C@@H](CC(N)=O)C(=O)N[C@@H](Cc2cn(CC(=O)O)c3ccccc23)C(=O)N1C [Example 9029]
2,8.00 to 9.00,CCCC[C@H]1C(=O)N(C)[C@@H](CCCC)C(=O)N[C@@H](CC(C)C)C(=O)N[C@H](C(N)=O)CNCC(=O)N[C@@H](Cc2ccc(O)cc2)C(=O)N2CCCC[C@H]2C(=O)N[C@@H](CC(=O)O)C(=O)N2CCC[C@H]2C(=O)N[C@@H](CCC(N)=O)C(=O)N[C@@H](CC(=O)O)C(=O)N2C[C@H](O)C[C@H]2C(=O)N[C@@H](Cc2c[nH]c3ccccc23)C(=O)N[C@@H](CC(N)=O)C(=O)N[C@@H](Cc2cn(CC(=O)O)c3ccccc23)C(=O)N1C [Example 9035]
3,8.00 to 9.00,CCCC[C@H]1C(=O)N(C)[C@@H](CCCC)C(=O)N[C@@H](CC(C)C)C(=O)N[C@H](C(N)=O)CNCC(=O)N[C@@H](Cc2ccc(O)cc2)C(=O)N2CCCC[C@H]2C(=O)N[C@@H](CC(N)=O)C(=O)N2CCC[C@H]2C(=O)N[C@@H](CCC(N)=O)C(=O)N[C@@H](CC(=O)O)C(=O)N2C[C@H](O)C[C@H]2C(=O)N[C@@H](Cc2c[nH]c3ccccc23)C(=O)N[C@@H](CC(N)=O)C(=O)N[C@@H](Cc2cn(CC(=O)O)c3ccccc23)C(=O)N1C [Example 9027]
4,8.00 to 9.00,CCCC[C@H]1C(=O)N(C)[C@@H](CCCC)C(=O)N[C@@H](C)C(=O)N[C@H](C(=O)NCC(N)=O)CNCC(=O)N[C@@H](Cc2ccc(O)cc2)C(=O)N(C)[C@@H](C)C(=O)N[C@@H](CC(=O)O)C(=O)N2CCC[C@H]2C(=O)N[C@@H](Cc2cnc[nH]2)C(=O)N[C@@H](CCC(N)=O)C(=O)N2C[C@H](O)C[C@H]2C(=O)N[C@@H](Cc2c[nH]c3ccccc23)C(=O)N[C@@H](CO)C(=O)N[C@@H](Cc2c[nH]c3ccccc23)C(=O)N1C [Example 10011]
5,8.00 to 9.00,CCCC[C@H]1C(=O)N(C)[C@@H](CCCC)C(=O)N[C@@H](CC(C)C)C(=O)N[C@H](C(N)=O)CNCC(=O)N[C@@H](Cc2ccc(F)cc2)C(=O)N2CCCC[C@H]2C(=O)N[C@@H](CC(=O)O)C(=O)N2CCC[C@H]2C(=O)N[C@@H](CCC(N)=O)C(=O)N[C@@H](CCC(=O)O)C(=O)N2C[C@H](O)C[C@H]2C(=O)N[C@@H](Cc2c[nH]c3ccccc23)C(=O)N[C@@H](CC(N)=O)C(=O)N[C@@H](Cc2cn(CC(=O)O)c3ccccc23)C(=O)N1C [Example 9040]
